{"source": "patent US20240245753A1", "about": "“METHODS OF REDUCING SIDE EFFECTS OF ANTI-CD30 ANTIBODY DRUG CONJUGATE THERAPY” (priority 2017, published 2024)", "molecules": {"B1": {"name": "G-CSF (protein, UniProt P09919 31-207, looked up)", "Granulocyte …": "TPLGPASSLPQSFLLKCLEQVRKIQGDGAALQEKLVSECATYKLCHPEELVLLGHSLGIPWAPLSSCPSQALQLAGCLSQLHSGLFLYQGLLQALEGISPELGPTLDTLQLDVADFATTIWQQMEELGMAPALQPTQGAMPAFASAFQRRAGGVLVASHLQSFLEVSYRVLRHLAQP"}}, "key": {"[1]": {"tested_on": "newly diagnosed CD30-positive mature T- and NK-cell neoplasms, including sALCL", "settings": "given concomitantly with CHP; cited from earlier work"}, "[2]": {"tested_on": "relapsed or refractory sALCL", "settings": "cited from earlier work"}, "[3]": {"assay": "Randomized, double-blind Phase 3 clinical trial of A+CHP versus CHOP: safety (adverse events, exposure)", "settings": "human, in vivo", "source_text": "TRIAL DESIGN: Approximately 450 patients (approximately 225 patients per treatment arm) are randomized in this study. The standard of care in this patient population consists of 6-8 cycles of CHOP chemotherapy. Patients are randomized in a 1:1 manner to receive 21-day cycles of treatment in 1 of the following 2 treatment groups: Standard-of-care arm: 6-8 cycles of CHOP; or Experimental arm: 6-8 cycles of brentuximab vedotin plus CHP (A+CHP). A target of 8 cycles of study treatment are administered, per investigator decision, based on patient-specific characteristics, including stage of disease and IPI risk score.\nSafety is evaluated by the incidence of adverse events, using the Medical Dictionary for Regulatory Activities (MedDRA; v19.0), and National Cancer Institute Common Terminology Criteria for Adverse Events v4.03, and by changes in vital signs, and clinical laboratory results.\nAll efficacy evaluations are conducted using the intent-to-treat population unless otherwise specified. Safety is analyzed in patients who received at least one dose of study drug (safety population).\nSubjects were randomly assigned in a 1:1 ratio to receive 21-day cycles of either A+CHP or CHOP for 6 or 8 cycles, with the number of cycles determined at the outset and based on investigator discretion. […]"}}, "note": "Where two headings read alike, the source gives them in different places."}
{"molecule": "brentuximab vedotin", "values": [{"measurement": "maximum tolerated dose", "setting": "[1]", "value": 1.8, "unit": "mg/kg"}, {"measurement": "median duration of response", "setting": "[2]; 1.8 mg/kg every 3 weeks", "value": 12.6, "unit": "months"}, {"measurement": "objective response (CR+PR) rate", "setting": "[2]; 1.8 mg/kg every 3 weeks", "value": 86, "unit": "%"}, {"measurement": "patients achieving a CR", "setting": "[2]; 1.8 mg/kg every 3 weeks", "value": 57, "unit": "%"}, {"measurement": "tolerability", "setting": "[2]; manageable side effects", "value": "generally well tolerated"}, {"measurement": "median duration of response", "setting": "[2]; subset of patients who achieved a CR", "value": 13.2, "unit": "months"}]}
{"molecule": "B1", "values": [{"measurement": "effect of primary prophylactic G-CSF on febrile neutropenia", "setting": "[3]", "value": "reduced the incidence and severity"}]}
